As a reminder, the inhibition is the drop in the measured response relative to a control, in per cent. One may read the IC50 as the midpoint of a concentration-inhibition curve.

The record followed here is ChEMBL document CHEMBL2346634, “Synthesis and biological activity of 4-substituted benzoxazolone derivatives as a new class of sEH inhibitors with high anti-inflammatory activity in vivo” (Bioorg Med Chem Lett, 2013).

Assay [1] has as its target T1, Bifunctional epoxide hydrolase 2 (Homo sapiens) (UniProt P34913).
T1 sequence (whole entry): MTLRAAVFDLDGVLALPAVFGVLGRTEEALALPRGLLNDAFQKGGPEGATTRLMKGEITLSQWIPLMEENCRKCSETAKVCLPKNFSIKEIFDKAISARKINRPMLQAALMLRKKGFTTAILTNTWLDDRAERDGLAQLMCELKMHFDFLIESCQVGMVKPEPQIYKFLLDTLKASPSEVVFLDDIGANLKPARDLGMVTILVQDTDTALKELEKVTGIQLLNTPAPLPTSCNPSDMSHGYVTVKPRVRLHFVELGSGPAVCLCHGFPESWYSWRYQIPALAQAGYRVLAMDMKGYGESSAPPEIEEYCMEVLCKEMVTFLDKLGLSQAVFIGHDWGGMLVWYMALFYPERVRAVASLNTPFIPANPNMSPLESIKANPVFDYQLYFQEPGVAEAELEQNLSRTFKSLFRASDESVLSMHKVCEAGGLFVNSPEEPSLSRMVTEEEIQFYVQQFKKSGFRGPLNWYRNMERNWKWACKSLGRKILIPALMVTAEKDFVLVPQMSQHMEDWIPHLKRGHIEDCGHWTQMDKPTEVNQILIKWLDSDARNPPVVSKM
Nature of the assay: Inhibition of recombinant human sEH expressed in Escherichia coli assessed as inhibition of substrate PHOME hydrolysis to 6-methoxy-2-naphthaldehyde at 10 ug/ml after 5 mins by fluorescence assay.

For assay [2], the species on record is Mus musculus. Nature of the assay: animal or person. To be noted: Kunming, Ear, po, read-out: INH.
Description: Antiinflammatory activity in Kunming mouse assessed as inhibition of xylene-induced ear edema at 150 mg/kg, po administered 45 mins prior to xylene challenge measured 15 mins post challenge
Assay [3] concerns the target T2, Bifunctional epoxide hydrolase 2 (Homo sapiens, UniProt P34913).
T2 sequence (P34913 whole entry): T1 sequence (whole entry)
Description: Inhibition of recombinant human sEH expressed in Escherichia coli assessed as inhibition of substrate PHOME hydrolysis to 6-methoxy-2-naphthaldehyde after 5 mins by fluorescence assay

SMILES strings stand for the structures.

Take `CC(C)(C)OC(=O)NC(Cc1c[nH]c2ccccc12)C(=O)Oc1cccc2oc(=O)[nH]c12` (stereo not drawn): the inhibition in assay [1] was 79.6%. The inhibition in vivo at 150 mg/kg in assay [2] was 61%.

For the molecule `CC(C)(C)OC(=O)NCC(=O)Oc1cccc2oc(=O)[nH]c12`, in assay [1], the inhibition is 95.5%. Besides, in assay [3], the IC50 was 17.2 µM. Moreover, the inhibition in vivo at 150 mg/kg in assay [2] was 54.5%.

As for `O=c1[nH]c2c(OS(=O)(=O)c3ccc([N+](=O)[O-])cc3)cccc2o1`, the inhibition in assay [1] is 28.8%.

As for `O=c1[nH]c2c(OS(=O)(=O)c3ccccc3Cl)cccc2o1`, in assay [1], the inhibition came out at 15.2%.

In the case of `O=c1[nH]c2c(OS(=O)(=O)c3ccc(Cl)cc3)cccc2o1`, in assay [1], the inhibition was 13.6%.

In the case of `Cc1ccc(S(=O)(=O)Oc2cccc3oc(=O)[nH]c23)cc1`, in assay [1], the inhibition was 39.9%.

On to `O=c1[nH]c2c(OS(=O)(=O)c3cccc([N+](=O)[O-])c3)cccc2o1`, for which the inhibition in assay [1] turned out to be 31.6%.

As to `O=C(Oc1cccc2oc(=O)[nH]c12)c1cccc(Cl)c1`, the inhibition in assay [1] came to 25.3%.

As to `CC(C)(C)OC(=O)NC(Cc1ccccc1)C(=O)Oc1cccc2oc(=O)[nH]c12` (stereo not drawn), the inhibition in assay [1] stood at 90.8%. For the same molecule, 2.67 µM corresponded to half-maximal inhibition in assay [3] (IC50). Moreover, the inhibition in vivo at 150 mg/kg in assay [2] amounted to 64%.

Turning to `O=c1[nH]c2c(O[C@@H]3O[C@H](CO)[C@@H](O)[C@H](O)[C@H]3O)cccc2o1`, the inhibition in assay [1] amounted to 45.5%.

Consider `CC(NC(=O)OC(C)(C)C)C(=O)Oc1cccc2oc(=O)[nH]c12` (stereo not drawn), for which the inhibition in assay [1] amounted to 95.7%. The molecule further yielded an IC50 in assay [3] of 16.4 µM. The inhibition in vivo at 150 mg/kg in assay [2] was 40.7%.

On to `O=C(Oc1cccc2oc(=O)[nH]c12)c1ccccc1Cl`, for which the inhibition in assay [1] came to 30.8%.

Turning to `O=C(Oc1cccc2oc(=O)[nH]c12)c1cccc([N+](=O)[O-])c1`, the inhibition in assay [1] is 92.9%. The molecule also came in with an IC50 in assay [3] of 3 µM.

Turning to `O=C(Oc1cccc2oc(=O)[nH]c12)c1ccccc1`, the inhibition in assay [1] was 28%.

As to `Cc1cccc(S(=O)(=O)Oc2cccc3oc(=O)[nH]c23)c1`, the inhibition in assay [1] came out at 30.9%.

As for `CC(C)C(NC(=O)OC(C)(C)C)C(=O)Oc1cccc2oc(=O)[nH]c12` (stereo not drawn), the inhibition in assay [1] came to 48%. Moreover, the inhibition in vivo at 150 mg/kg in assay [2] came out at 46.5%.

As to `Cc1ccc(C(=O)Oc2cccc3oc(=O)[nH]c23)cc1`, the inhibition in assay [1] was determined as 98.3%. The same molecule registered an IC50 in assay [3] of 1.07 µM.

Consider `O=C(Oc1cccc2oc(=O)[nH]c12)c1ccccc1[N+](=O)[O-]`, for which, in assay [1], the inhibition amounted to 29.2%.

On to `O=c1[nH]c2c(OS(=O)(=O)c3ccccc3[N+](=O)[O-])cccc2o1`, for which, in assay [1], the inhibition is 36.1%.

Regarding `Cc1cccc(C(=O)Oc2cccc3oc(=O)[nH]c23)c1`, the inhibition in assay [1] worked out at 24.4%.

For the molecule `O=c1[nH]c2c(OS(=O)(=O)c3cccc(Cl)c3)cccc2o1`, the inhibition in assay [1] came out at 24.5%.

As to `O=c1[nH]c2c(O[C@@H]3O[C@H](CO)[C@H](O)[C@H](O)[C@H]3O)cccc2o1`, the inhibition in assay [1] was 61%.

Turning to `Cc1ccccc1C(=O)Oc1cccc2oc(=O)[nH]c12`, in assay [1], the inhibition turned out to be 26.2%.

Consider `O=C(Oc1cccc2oc(=O)[nH]c12)c1ccc(Cl)cc1`, for which the inhibition in assay [1] stood at 27.8%.

Take `CSCCC(NC(=O)OC(C)(C)C)C(=O)Oc1cccc2oc(=O)[nH]c12` (stereo not drawn): the inhibition in assay [1] stood at 99.6%. The molecule also came in with an IC50 in assay [3] of 3.02 µM. Further, the inhibition in vivo at 150 mg/kg in assay [2] came to 24.8%.

With `CC(C)(C)OC(=O)N1CCCC1C(=O)Oc1cccc2oc(=O)[nH]c12` (stereo not drawn), the inhibition in assay [1] was 101%. Moreover, the IC50 in assay [3] was found to be 1.72 µM. Further, the inhibition in vivo at 150 mg/kg in assay [2] is 51.5%.

As for `O=c1[nH]c2c(OS(=O)(=O)c3ccccc3)cccc2o1`, in assay [1], the inhibition is 36%.

Turning to `Cc1ccccc1S(=O)(=O)Oc1cccc2oc(=O)[nH]c12`, the inhibition in assay [1] amounted to 28%.

Take `O=C(Oc1cccc2oc(=O)[nH]c12)c1ccc([N+](=O)[O-])cc1`: the inhibition in assay [1] amounted to 28.1%.
